Measurements taken from patent EP1038880B1, “Androstanes and pregnanes for allosteric modulation of GABA receptor” (priority 1994, dated 1995).

Columns and labels:
[1] = test system: Rats; assay: Vogel test; assay type: in vivo; details: i.c.v., g-CD
Excerpt: The Vogel test is based on the development of a conflict between a highly motivated behavior and an aversion. For this test, the strong motivation is thirst. The animal is water deprived for 12-16 hrs to produce the motivation to drink. During the training period the animals are exposed to the testing environment so they become accustomed to the drinking spout and minimize the fear of a novel environment. Following training, the animals are allowed access to water for 2 hrs. During this time, the animals will drink and eat their normal amount of water and food, compensating for the deprivation time. However, this schedule still produces a strong motivation to drink during the testing period.
Having been deprived of water for twelve to sixteen hours, an animal is placed in a test cage where it is allowed to drink freely for five minutes. This period is used to habituate the animal to the environment and the drinking spout. Following the training period, animals have access to water and food in their home cage for 2 hrs. Food is available at all times. Twenty-four hours later, drug is administered to the animal intracecebroventricularly.
After an indicated delay started from the time of injection the animal is again placed in the test cage for ten minutes. A computer counts each time the animal licks, and after every twentieth lick administers a mild electric stimulus across the tongue and/or feet. The electrical stimulus consists of a 0.6 mA current with a duration of 100 msec. This procedure produces a state of conflict for the animal that is reduced by the administration of clinically used anxiolytic agents (i.e., Valium). For dose-response curves, separate groups of animals are injected with increasing doses of test drug and are tested at a predetermined time.
Table 10. Anxiolytic Activity in Vogel Test in Rats

[2] = test system: Sprague-Dawley rats; assay: Geller-Seifter conflict test; assay type: in vivo
Excerpt: This animal model of human anxiety utilizes a conditioned state of conflict in rats to ascertain the anxiolytic properties of drugs. […] The first includes bar pressing under a variable […] schedule without punishment. The second component is a fixed ratio schedule with each bar press resulting in a positive reinforcement and a punishment. The punished component produces a state of conflict within the animal. […] An anxiolytic response would increase the punished responding without affecting the unpunished responding.
Rats were housed individually under a 12-hour light-dark cycle with lights on from 0700-1900.
Rats were trained in test chambers (Coulbourn instruments) with a lever mounted in one wall, a small dipper that delivered the 0.1-mL milk reward (1 part Eagle condensed : milk 2 parts water), and a metal grid floor through which the foot-shock punishment was administered. A DEC PDP 11/73 minicomputer nmning SKED (State Systems) was used for programming and recording.
Rates initially learned to respond on a continuous reinforcement schedule and progressed rapidly to 30-sec, 1-min, and 2-min variable interval (VI) schedules. On the continuous reinforcement schedule, rats received milk reward following every lever press; on the VI schedules, milk rewards were available at infrequent and variable intervals, eventually at an average of once every 2 min. […] During conflict periods, which were signalled by the presentation of a light and a tone, the continuous reinforcement schedule was again in force and each lever press delivered both a milk reward and a brief ([…]) foot-shock Shock intensity was 0.2 mA initially, and.was increased daily in increments of 0.02 mA in order to gradually suppress lever pressing to 5 responses or less per conflict period. […] Drug-induced increases in the rate of punished responses were taken as an index of antianxiety activity, while decreases in the rate of unpunished responses were taken as an index of response depression or sedation.

[3] = test system: GR complex; assay: [35S]TBPS binding assay (inhibition of [35S]TBPS binding, cerebral cortex P2 homogenate); parameters: species or system rat; details: for modulation of [35S]TBPS binding, in words: even at very high concentrations (Figure 6)
How it was run: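 Rat (male Sprague-Dawley) cortical P2 homogenate (0.5 mg protein) in 50 mM Na/K phosphate pH 7.4, 200 mM NaCl, incubated with 2 nM [35S]TBPS plus steroid test compounds (DMSO) in presence of GABA plus (+)bicuculline, 25°C, 90 min. Filtration, scintillation counting; nonspecific binding defined with […].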

[4] = target: T1, Hippocampal Mineralocorticoid Receptors (Rattus norvegicus, UniProt P22199); assay: Inhibition of 3H-aldosterone binding, brain cytosol; parameters: species or system rats; details: competitor 10^-6M; 3 nM 3H-aldosterone, RU28362 0.5 µM
T1 construct: To isolate the mineralocorticoid receptor, brain cytosol fractions were prepared; from tissue; host or cells: rat brain (hippocampal) cytosol
T1 sequence (P22199 1-981): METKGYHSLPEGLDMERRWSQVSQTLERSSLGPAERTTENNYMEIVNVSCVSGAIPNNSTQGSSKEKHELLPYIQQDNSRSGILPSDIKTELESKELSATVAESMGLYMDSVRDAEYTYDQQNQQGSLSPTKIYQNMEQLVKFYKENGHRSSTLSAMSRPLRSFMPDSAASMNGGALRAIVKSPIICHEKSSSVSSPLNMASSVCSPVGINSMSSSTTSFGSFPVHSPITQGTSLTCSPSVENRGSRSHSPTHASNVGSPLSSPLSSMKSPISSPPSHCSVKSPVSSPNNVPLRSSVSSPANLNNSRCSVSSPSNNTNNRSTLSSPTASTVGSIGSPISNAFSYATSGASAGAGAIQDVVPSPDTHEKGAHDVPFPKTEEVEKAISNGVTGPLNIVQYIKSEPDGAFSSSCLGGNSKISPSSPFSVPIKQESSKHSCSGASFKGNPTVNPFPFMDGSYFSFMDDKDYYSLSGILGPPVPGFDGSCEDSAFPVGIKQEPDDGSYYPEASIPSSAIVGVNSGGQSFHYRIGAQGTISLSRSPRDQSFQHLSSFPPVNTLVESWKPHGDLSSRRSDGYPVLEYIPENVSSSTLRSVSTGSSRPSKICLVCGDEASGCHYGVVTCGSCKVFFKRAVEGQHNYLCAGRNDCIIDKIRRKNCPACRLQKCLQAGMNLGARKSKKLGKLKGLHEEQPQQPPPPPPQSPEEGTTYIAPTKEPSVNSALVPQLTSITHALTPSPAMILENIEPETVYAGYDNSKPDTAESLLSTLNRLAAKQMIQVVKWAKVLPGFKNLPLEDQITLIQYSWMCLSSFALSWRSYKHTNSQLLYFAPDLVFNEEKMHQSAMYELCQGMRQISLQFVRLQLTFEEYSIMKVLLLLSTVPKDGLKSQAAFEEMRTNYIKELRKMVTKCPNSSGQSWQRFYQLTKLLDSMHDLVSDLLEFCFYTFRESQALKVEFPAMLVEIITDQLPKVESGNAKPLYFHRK
Experimental: (§1) Various hormonal activities of representative neuroactive steroids were further studied through testing their potential estrogenic, mineralocorticoid and glucocorticoid activities. These activities were analyzed by monitoring the ability of the compounds to inhibit binding of the steroid hormones to their respective hormone receptors.
In Table 3, rats were adrenalectomized 3 days prior to sacrifice. […] Table 2. Inhibition of 3H-Progesterone Binding to the Bovine Uteral Progesterone Receptors
Table 3. Inhibition of 3H-Aldosterone Binding to Hippocampal Mineralocorticoid Receptors

[5] = test system: Bovine Uteral Progesterone Receptors; assay: Inhibition of 3H-progesterone binding, uterus cytosol; details: competitor 10^-6M; 3H-progesterone 0.15 nM
Experimental: The data presented were obtained by performing assays in accordance with the procedures described in et al. 1988 previously to determine the effect of progesterone metabolites and their derivatives and the progestin R5020 on the binding of [^3H]R5020 to the progesterone receptor in rat uterus (Gee et al. 1988).
^3H-progesterone (0.15 nM) was incubated with the rat uterus cytosol in the presence of the test compounds. The specific binding were determined after incubation and compared to the control incubation without the compounds. The data are expressed as percent inhibition of binding.
In Table 3, rats were adrenalectomized 3 days prior to sacrifice. To isolate the mineralocorticoid receptor, brain cytosol fractions were prepared as describe in Gee, et al. 1988. The drugs were incubated with 3 nM of ^3H-aldosterone (the specific ligand for the mineralocorticoid receptor) in the presence of the selective type II agonist RU28362 (0.5 µM) which blocks ^3H-aldosterone binding to the type II (glucocorticoid) receptors. Table 2. Inhibition of 3H-Progesterone Binding to the Bovine Uteral Progesterone Receptors

[6] = target: T2, Glucocorticoid Receptors (Rattus norvegicus, UniProt P06536); assay: Inhibition of 3H-dexamethasone binding, brain cytosol; parameters: species or system rats; dose or concentration left out as unconfirmed; details: read-out: % of Inhibition
T2 construct: from tissue; host or cells: rat brain cytosol
T2 sequence (P06536 1-795): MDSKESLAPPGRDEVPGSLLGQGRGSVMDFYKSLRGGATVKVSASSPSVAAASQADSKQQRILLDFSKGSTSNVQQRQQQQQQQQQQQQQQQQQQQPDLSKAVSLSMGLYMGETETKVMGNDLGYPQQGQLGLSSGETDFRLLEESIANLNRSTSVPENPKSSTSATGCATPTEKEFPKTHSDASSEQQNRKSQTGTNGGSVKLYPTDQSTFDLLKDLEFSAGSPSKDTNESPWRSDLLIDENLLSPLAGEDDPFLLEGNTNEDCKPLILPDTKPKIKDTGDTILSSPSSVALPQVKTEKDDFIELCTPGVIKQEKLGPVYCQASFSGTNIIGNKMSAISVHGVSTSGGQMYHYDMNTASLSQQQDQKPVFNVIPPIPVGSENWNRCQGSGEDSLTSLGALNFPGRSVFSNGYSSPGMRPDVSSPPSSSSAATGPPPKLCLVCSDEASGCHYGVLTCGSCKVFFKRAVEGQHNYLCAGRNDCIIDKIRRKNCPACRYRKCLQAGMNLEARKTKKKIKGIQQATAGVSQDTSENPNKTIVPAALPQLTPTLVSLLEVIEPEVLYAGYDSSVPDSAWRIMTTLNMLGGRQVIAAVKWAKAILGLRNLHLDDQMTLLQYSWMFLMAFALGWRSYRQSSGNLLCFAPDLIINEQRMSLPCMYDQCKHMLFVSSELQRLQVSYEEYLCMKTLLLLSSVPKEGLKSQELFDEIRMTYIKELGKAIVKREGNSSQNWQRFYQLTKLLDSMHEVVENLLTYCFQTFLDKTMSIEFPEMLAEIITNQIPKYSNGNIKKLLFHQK
Experimental: as §1
For Table 4, brain cytosol fractions were prepared as for Table 3, and the compounds were incubated with 3 nM of ^3H-dexamethasone (the specific ligand for the glucocorticoid receptor).

CC(O)C1CCC2C3CCC4CC(O)C(F)CC4(C)C3CCC12C (stereo not drawn) [2β-Fluoro-3α,20α-dihydroxy-5α-pregnane]
Vogel (%of control) ([1]; 20 µg/kg): 264.9 %of control

C[C@H](O)[C@H]1CC[C@H]2[C@@H]3CC[C@H]4C[C@H](O)CC[C@]4(C)[C@H]3CC[C@]12C [3α,20α(S)-Dihydroxy-5α-pregnane]
Vogel (%of control) ([1]; 10 µg/kg): 193.0 %of control

CC(C)OC1CC2(C)C(CCC3C2CCC2(C)C(C(C)O)CCC32)CC1O (stereo not drawn) [3α,20α-Dihydroxy-2β-isopropoxy-5α-pregnane]
Vogel (%of control) ([1]; 10 µg/kg): 169.0 %of control

CCC[C@H](O)[C@H]1CC[C@H]2[C@@H]3CC[C@H]4C[C@H](O)CC[C@]4(C)[C@H]3CC[C@]12C [3α,20α-Dihydroxy-21-ethyl-5α-pregnane]
Vogel (%of control) ([1]; 20 µg/kg): 225.8 %of control

CC[C@H](O)[C@H]1CC[C@H]2[C@@H]3CC[C@H]4C[C@H](O)CC[C@]4(C)[C@H]3CC[C@]12C [3α,20α-Dihydroxy-21-methyl-5α-pregnane]
Vogel (%of control) ([1]; 10 µg/kg): 157.9 %of control

COC[C@@]1(O)CC[C@@]2(C)[C@@H](CC[C@@H]3[C@@H]2CC[C@]2(C)[C@@H](C(C)=O)CC[C@@H]32)C1 [3α-Hydroxy-3β-methoxymethyl-5α-pregnan-20-one]
Geller/ Seifter (% of control) ([2]; IP, 50% hpbcd, 10 mg/kg): 958 % of control

CCOC[C@@]1(O)CC[C@@]2(C)[C@@H](CC[C@@H]3[C@@H]2CC[C@]2(C)[C@@H](C(C)=O)CC[C@@H]32)C1 [3α-hydroxy-3β-ethoxymethyl-5α-pregnan-20-one]
Geller/ Seifter (% of control) ([2]; IP, 50% hpbcd, 40 mg/kg): 3743 % of control

C[C@H](O)[C@H]1CC[C@H]2[C@@H]3CC[C@H]4C[C@H](O)CC[C@]4(C)[C@H]3CC[C@]12C [5α-pregnan-3α,20α-diol, reference compound]
modulation of [35S]TBPS binding, in words [3]: partially modulate
inhibition at 1 µM [4]: 0%
Vogel (%of control) ([1]; 10 µg/kg): 283.3 %of control
Vogel (%of control) ([1]; 20 µg/kg): 267.3 %of control

CC(C)(O)[C@H]1CC[C@H]2[C@@H]3CC[C@H]4C[C@H](O)CC[C@]4(C)[C@H]3CC[C@]12C [5α-pregnan-20-dimethyl-3α,20-diol]
% of Inhibition [5]: 0%
inhibition at 1 µM [4]: 0%
inhibition [6]: 2.6%

C[C@H](O)[C@H]1CC[C@H]2[C@@H]3CC[C@@H]4C[C@H](O)CC[C@]4(C)[C@H]3CC[C@]12C [5β-pregnan-3α,20α-diol]
modulation of [35S]TBPS binding, in words [3]: partially modulate
% of Inhibition [5]: 0%
inhibition at 1 µM [4]: 0%

CC(=O)C1CCC2C3CCC4CC(O)(C(F)(F)F)CCC4(C)C3C(N(C)C)CC12C (stereo not drawn) [11α-N,N-Dimethylamino-3α-hydroxy-3β-trifluoromethyl-5β pregnan-20-one]
Geller/ Seifter (% of control) ([2]; IP, citrate, 20 mg/kg): 145 % of control

C[C@]12CCC(=O)C=C1CC[C@@H]1[C@@H]2[C@@H](O)C[C@]2(C=O)[C@@H](C(=O)CO)CC[C@@H]12 [Aldosterone]
inhibition at 1 µM [4]: 95.5%

COCC1(O)CCC2(C)C(CCC3C2CCC2(C)C(C(=O)CSS(=O)(=O)[O-])CCC32)C1.[Na+] (stereo not drawn) [sodium S-(3α-hydroxy-3β-methoxymethyl-5α-pregnan-20-on-21-yl) thiosulfate]
IC50 ([3]; 2 nM [35S]TBPS, rat cerebral cortex P2 homogenate): 132 nM
IMAX ([3]; maximum inhibition of [35S]TBPS binding): 103%
Geller/ Seifter (% of control) ([2]; PO, water, 32 mg/kg): 4487.5 % of control
